Measurements as given in patent US7790710B2, “Imidazopyridine derivatives useful as iNOS inhibitors” (NYCOMED GmbH, priority 2005, dated 2010).

Tests used:
[1] = molecular target: T1, human inducible NO-synthase (Homo sapiens, UniProt P35228); test: Measurement of inducible NO-synthase activity in the presence of 20% human plasma serum; format: biochemical; details: 20% (v/v) human plasma serum added into the reaction volume; read-out: Inhibition of iNOS activity -logIC50 20% human serum (converted)
Experimental: (§1) The assay is performed in 96-well microtiter F-plates (Greiner, Frickenhausen, FRG) in a total volume of 100 μl in the presence of 100 nM calmodulin, 226 μM CaCl2, 477 μM MgCl2, 5 μM flavin-adenine-dinucleotide (FAD), 5 μM flavin mononucleotide (FMN), 0.1 mM nicotinamide adenine dinucleotide phosphate (NADPH), 7 mM glutathione, 10 μM tetrahydrobiopterine (BH4) and 100 mM 4-(2-hydroxyethyl)piperazine-1-ethanesulfonic acid (HEPES) pH 7.2. Arginine concentrations are 0.1 μM for enzyme inhibition experiments. 150000 dpm of [^3H]arginine are added to the assay mixture. Enzyme reaction is started by the addition of 4 μg of a crude cytosolic fraction containing human inducible NO-synthase and the reaction mixture is incubated for 45 to 60 min at 37° C. Enzyme reaction is stopped by adding 10 μl of 2M 2-morpholinoethane sulfonic acid buffer (MES-buffer) pH 5.0. 50 μl of the incubation mixture are transferred into a MADP N65 filtration microtiter plate (Millipore, Eschborn, FRG) containing already 50 μl of AG-50W-X8 cation exchange resin (Biorad, München, FRG). The resin in the Na loaded form is pre-equilibrated in water and 70 μl (corresponding to 50 μl dry beads) are pipetted under heavy stirring with a 8 channel pipette into the filtration plate. After pipetting 50 μl of the enzyme reaction mixture onto the filtration plates, the plates are placed on a filtration manifold (Porvair, Shepperton, UK) and the flow through is collected in Pico scintillation plates (Packard, Meriden, Conn.). The resin in the filtration plates is washed with 75 μl of water (1×50 μl and 1×25 μl) which is also collected in the same plate as the sample. The total flow through of 125 μl is mixed with 175 μl of Microscint-40 scintillation cocktail (Packard) and the scintillation plate is sealed with TopSeal P-foil (Packard). Scintillation plates are counted in a szintillation counter.
(§2) For the measurement of inducible NO-synthase-inhibiting potencies of compounds according to the invention increasing concentrations of inhibitors are included into the incubation mixture. IC50 values are calculated from the percent inhibition at given concentrations by nonlinear least square fitting.
The assay determining the human plasma serum binding of compounds according to the invention was performed essentially as the enzymatic activity assay described above. Human plasma serum 20% (v/v) was added into the reaction volume. Human serum was obtained after coagulation and sedimentation of drawn donor blood. After centrifugation (two times 3500 rpm, 30 min) the plasma serum was dialyzed in phosphate buffered saline (PBS) for 18 h using dialysis cassettes with a molecular weight cuttoff of 3500 Dalton (Slide-a-Lyzer 3.5 K, Pierce, Rockford Ill.) in order to reduce the L-arginine concentration that is interfering with the radioactive activity assay. The buffer was refreshed 5 times during dialysis. The serum was aliquoted and frozen at −20° C. until use. Inhibitory potency of the compounds according to the invention was determined as described above.

[2] = molecular target: T1, human inducible NO-synthase; test: Measurement of inducible NO-synthase activity; format: biochemical; details: crude cytosolic fraction containing human iNOS; 0.1 μM arginine; [3H]arginine; read-out: Inhibition of iNOS activity -logIC50 (converted)
Experimental: as §1, §2

Structure (SMILES) | melting point | IC50 [1] [nM] | IC50 [2] [nM]
Cc1ccccc1NS(=O)(=O)c1ccc(-c2cnc3[nH]c(CCC4CCCCC(N)=N4)nc3c2)cc1 (stereo not shown) [compound 9, 4-{2-[2-(7-Amino-3,4,5,6-tetrahydro-2H-azepin-2-yl)-ethyl]-3H-imidazo[4,5-b]pyridin-6-yl}-N-o-tolyl-benzenesulfonamide] | 215 °C | – | 398
Cc1ccc(NS(=O)(=O)c2ccc(-c3cnc4[nH]c(CCC5CCCCC(N)=N5)nc4c3)cc2)c(F)c1 (stereo not shown) [compound 8, 4-{2-[2-(7-Amino-3,4,5,6-tetrahydro-2H-azepin-2-yl)-ethyl]-3H-imidazo[4,5-b]pyridin-6-yl}-N-(2-fluoro-4-methyl-phenyl)-benzenesulfonamide] | 265 °C | – | 589
CCN1CCN(S(=O)(=O)c2ccc(-c3cnc4[nH]c(CCC5CCCCC(N)=N5)nc4c3)cc2)CC1 (stereo not shown) [compound 7, 7-(2-{6-[4-(4-Ethyl-piperazine-1-sulfonyl)-phenyl]-3H-imidazo[4,5-b]pyridin-2-yl}-ethyl)-4,5,6,7-tetrahydro-3H-azepin-2-ylamine] | 199 °C | – | 468
CN(CC1CCCO1)S(=O)(=O)c1ccc(-c2cnc3[nH]c(CCC4CCCCC(N)=N4)nc3c2)cc1 (stereo not shown) [compound 10, 4-{2-[2-(7-Amino-3,4,5,6-tetrahydro-2H-azepin-2-yl)-ethyl]-3H-imidazo[4,5-b]pyridin-6-yl}-N-methyl-N-(tetrahydro-furan-2-ylmethyl)-benzenesulfonamide] | 260 °C | – | 617
CN(C)S(=O)(=O)c1ccc(-c2cnc3[nH]c(CCC4CCCCC(N)=N4)nc3c2)cc1 (stereo not shown) [compound 5, 4-{2-[2-(7-Amino-3,4,5,6-tetrahydro-2H-azepin-2-yl)-ethyl]-3H-imidazo[4,5-b]pyridin-6yl}-N,N-dimethyl-benzenesulfonamide] | 195 °C (dec.) | 933 | 229
NC1=NC(CCc2nc3cc(-c4ccc(S(=O)(=O)N5CCC5)cc4)cnc3[nH]2)CCCC1 (stereo not shown) [compound 6, 7-(2-{6-[4-(Azetidine-1-sulfonyl)-phenyl]-3H-imidazo[4,5-b]pyridin-2-yl}-ethyl)-4,5,6,7-tetrahydro-3H-azepin-2-ylamine] | 154 °C (dec.) | 603 | 302

The remaining lines, values ahead:

melting point | IC50 [1] [nM] | IC50 [2] [nM] | Structure (SMILES)
117 °C (dec.) | 1000 | 170 | NC1=NC(CCc2nc3cc(-c4ccccc4)cnc3[nH]2)CCCC1 (stereo not shown) [compound 1, 7-[2-(6-Phenyl-3H-imidazo[4,5-b]pyridin-2-yl)-ethyl]-4,5,6,7-tetrahydro-3H-azepin-2-ylamine]
306 °C | 1580 | 251 | COc1ccc(-c2cnc3[nH]c(CCC4CCCCC(N)=N4)nc3c2)cc1 (stereo not shown) [compound 3, 7-{2-[6-(4-Methoxy-phenyl)-3H-imidazo[4,5-b]pyridin-2-yl]-ethyl}-4,5,6,7-tetrahydro-3H-azepin-2-ylamine]
175 °C (dec.) | 398 | 224 | N#Cc1ccc(-c2cnc3[nH]c(CCC4CCCCC(N)=N4)nc3c2)cc1 (stereo not shown) [compound 2, 7-[2-(6-{4-Cyano-phen-1-yl}-3H-imidazo[4,5-b]pyridin-2-yl)-ethyl]-4,5,6,7-tetrahydro-3H-azepin-2-ylamine]
– | 955 | 229 | NC1=NC(CCc2nc3cc(-c4cc5ccccc5o4)cnc3[nH]2)CCCC1 (stereo not shown) [compound 4, 7-[2-(6-Benzofuran-2-yl-3H-imidazo[4,5-b]pyridin-2-yl)-ethyl]-4,5,6,7-tetrahydro-3H-azepin-2-ylamine]
